According to patent US20250235543A1, “MODIFIED PROTEINS AND PROTEIN DEGRADERS” (Cullgen (Shanghai), Inc., priority 2021, published 2025):

Columns and labels:
Format in all cases: cell-based
[1] = system: cyclin D1, cyclin D2, cyclin D3, CDK4 and CDK6; experiment: Immunoblotting of cyclin D and CDK4/6 protein levels in BT-549 cells; conditions: indicated concentrations, 16 hours
Procedure: Calu-1 (FIG. 2A) or BT-549 (FIG. 2B) cells were treated with CPD-002, CPD-004, or palbociclib at indicated concentrations for 16 hours.
(§1) Cultured cells were washed with cold PBS once and lysed in cold RIPA buffer supplemented with protease inhibitors and phosphatase inhibitors (Beyotime Biotechnology). The solutions were then incubated at 4° C. for 30 min with gentle agitation to fully lysed cells. Cell lysates were centrifuged at 13,000 rpm for 10 min at 4° C. and pellets were discarded. Total protein concentrations in the lysates were determined following BCA assays (Beyotime Biotechnology). Cell lysates were mixed with Laemmli loading buffer and heated at 99° C. for 5 min. Proteins were resolved on SDS-PAGE and visualized using Western ECL Substrate kits on a ChemiDoc MP Imaging system (Bio-Rad). Protein bands were quantitated using the Image Lab software provided by Bio-Rad.

CDK4, CDK6 = experiment: Immunoblot of CDK4 and CDK6 protein levels in Calu-1 cells; conditions: 500 nM CPD-002
Procedure: Specific exemplary heterobifunctional compounds were characterized in Calu-1, BT-549 and other cells. Cells that express cyclin D1-3 and CDK4/6 proteins were treated with heterobifunctional compounds disclosed herein at indicated concentrations for 16 hours. Cells were collected, lysed and subject to immunoblotting using an antibody specific to cyclin D1, cyclin D2, cyclin D3, CDK4, CDK6 or phosphorylated R^b proteins. Tubulin or GAPDH was used as the loading control. DMSO treatment was used as the negative control.
In a time-course study, Calu-1 cells were treated with 500 nM CPD-002, or 100 nM CPD-031 for indicated period of time prior to immunoblotting (FIG. 4A-4B).
To verify that heterobifunctional compound-mediated degradation is dependent on the binding to CDK4-cyclin D complex, we designed three negative control compounds, CPD-042, CPD-049 and CPD-380, which are derived from CPD-002 CPD-031 and CPD-343, respectively. These three control compounds bear the same DDB1 ligand and linker as their corresponding active heterobifunctional compounds but with modified warheads to impair the binding of the control compounds to CDK4. […] Two cereblon (CRBN)-recruiting reference heterobifunctional compounds, CP-10 (Su, J Med Chem, 2019; CAS No.: 2366268-80-4) and BSJ-03-123 (Brand, Cell Chem Biol, 2019; CAS No.: 2361493-16-3) were analyzed in Calu-1 cells.

cyclin D1 = experiment: Cyclin D1 degradation in parental and DDB1 knockout Hs578T cells; conditions: dose range, 4 hours
Procedure: Parental and DDB1 knockout Hs578T cells were treated with a dose range of CPD-031 for 4 hours (FIG. 5C).
The procedures for CRISPR-Cas9 mediated knock-out followed the previously published protocols (Ran et al., 2013). The sgRNA targeting human DDB1 (sgRNA sequence: […]) (SEQ ID NO: 1) was designed using the online CRISPR Design Tool (chopchop.cbu.uib.no/), and constructed into CRISPR-Cas9 vector, pLentiCRISPR V2 (Addgene #52961). Lentivirus was produced in HEK293T cells by co-transfecting pLentiCRISPR construct with packing vectors. Hs578T cells stably expressing Cas9 enzyme and sgRNA were established by lentivirus transduction, selected, and maintained in medium containing […] puromycin.
as §1, with “Proteins were resolved on SDS-PAGE and visualized using Western ECL Substrate kits on a ChemiDoc MP Imaging system (Bio-Rad).” left out

CC(=O)c1c(C)c2cnc(Nc3ccc(N4CCN(CC(=O)NCCOCCOCCOCCOCCOCCNc5ccc(C(=O)Nc6ncc(C)s6)c(C)c5)CC4)cn3)nc2n(C2CCCC2)c1=O [CPD-002, 4-((1-(4-(6-((6-Acetyl-8-cyclopentyl-5-methyl-7-oxo-7,8-dihydropyrido[2,3-d]pyrimidin-2-yl)amino)pyridin-3-yl)piperazin-1-yl)-2-oxo-6,9,12,15,18-pentaoxa-3-azaicosan-20-yl)amino)-2-methyl-N-(5-methylthiazol-2-yl)benzamide]
cyclin D1, cyclin D2, cyclin D3, CDK4 and CDK6 protein levels [1]: reduced cyclin D1, cyclin D2, cyclin D3, CDK4 and CDK6 protein levels in a concentration-dependent manner | degradation of CDK4 and CDK6 relative to cyclin D, time-course (CDK4, CDK6): occurred much slower

CC(=O)c1c(C)c2cnc(Nc3ccc(N4CCN(CC(=O)NCCOCCOCCOCCOCCOCCNc5ccc(C(=O)Nc6nc(C)c(C)s6)c(C)c5)CC4)cn3)nc2n(C2CCCC2)c1=O [CPD-031, 4-((1-(4-(6-((6-Acetyl-8-cyclopentyl-5-methyl-7-oxo-7,8-dihydropyrido[2,3-d]pyrimidin-2-yl)amino)pyridin-3-yl)piperazin-1-yl)-2-oxo-6,9,12,15,18-pentaoxa-3-azaicosan-20-yl)amino)-N-(4,5-dimethylthiazol-2-yl)-2-methylbenzamide]
cyclin D1 degradation in DDB1 knockout versus parental cells (cyclin D1): partially compromised by depletion of DDB1 E3 ligase
